Laboratory results published in patent US20260174682A1, “GAMMA-AMINOBUTYRIC ACID DERIVATIVE COMPRISING POLYCYCLIC STRUCTURE, METHOD FOR PREPARING SAME, AND USE THEREOF” (ZHONGSHAN INSTITUTE FOR DRUG DISCOVERY, SIMM, CAS., priority 2022, published 2026).
Where two headings read alike, the source gives them in different places. Marks after values point to notes of the source that are not given here.

Tests used:
[1] = test system: mouse 6-Hz psychomotor seizure model; test: Antiepileptic effect in mouse 6-Hz psychomotor seizure model; assay type: in vivo; conditions: 6-Hz model, C57BL/6 mice, gavage, dose 300 mg/kg
Description: A negative vehicle control group, a positive drug control group (pregabalin and gabapentin) and a test group of the compounds of the present application were set. Male C57BL/6 mice with a body weight of 20±2 g were selected. […] After fasted for 12 h, the mice were administered the compounds of the present application or the control drugs, and then subjected to 6-Hz electrical stimulation to induce epilepsy seizure behaviors after a certain time interval (2 h for pregabalin, 1 h for gabapentin, 1 h for levetiracetam, and 3 h for the compounds of the present application). In an induction model, when the stimulation was performed with a Model 4100 stimulator (A-M Systems, the United States), rear necks of the mice were immobilized by hands on a feeding cage, a corneal electrode was moisten with normal saline and allowed to gently contact bilateral corneas of the mice, the electrical stimulator was trod by a foot to give the mice the electrical stimulation with a stimulation parameter of 6-Hz, a one-way square wave of 32 mA, a wave width of 0.2 ms and a stimulation duration of 3 sec, and timing was performed with a stopwatch during the stimulation. After the electrical stimulation was completed, the mice with the seizure behaviors lasting for less than 7 sec were regarded as being protected by the drugs, and the mice with the seizure behaviors lasting for more than 7 sec were regarded as being not protected from the epilepsy by the drugs. Response situations of the animals were observed and recorded, and obtained data were counted to calculate protection rates of the compounds.
Statistical method: The protection rates of different administration groups were separately compared with that of the vehicle control group to carry out a Fisher's exact test.

[2] = test system: mouse model with subcutaneous injection of pentylenetetrazole (sc-PTZ); test: Antiepileptic effect in mouse model with subcutaneous injection of pentylenetetrazole (sc-PTZ); assay type: in vivo
Description: A negative vehicle control group, a positive drug control group (pregabalin and gabapentin) and a test group of the compounds of the present application were set. Male ICR mice with a body weight of 22±2 g were selected. […] After fasted for 12 h, the mice were administered the compounds of the present application or the control drugs, and then subcutaneously injected with pentylenetetrazole (PTZ) to induce epilepsy seizure behaviors after a certain time interval (2 h for pregabalin, 1 h for gabapentin, and 3 h for the compounds of the present application). In an induction model, pentylenetetrazole (PTZ) was dissolved in normal saline and administered to the mice through the way of subcutaneous injection (10 mL/kg, administration dose 100 mg/kg). After the injection of PTZ, behavioral observations on the mice were conducted for 1 h, and the latent periods and numbers of the mice with convulsive seizures, clonic seizures, tonic seizures and death after the injection of PTZ were recorded.
Statistical method: Protection rates and mortality of different administration groups were separately compared with those of the vehicle control group to carry out a Fisher's exact test. The seizure time and the latent periods were analyzed by one-way ANOVA.

[3] = test system: mouse maximum electroshock model (MES); test: Antiepileptic effect in mouse maximum electroshock model (MES); assay type: in vivo; conditions: MES, ICR mice, gavage, dose 300 mg/kg
Description: A negative vehicle control group, a positive drug control group (pregabalin and gabapentin) and a test group of the compounds of the present application were set. Male ICR mice with a body weight of […] were selected. […] After fasted for 12 h, the mice were administered the compounds of the present application or the control drugs according to the body weight, and then subjected to electrical stimulation to induce generalized tonic-clonic seizure behaviors after a certain lime interval (2 h for pregabalin, 1 h for gabapentin, and 3 h for the compounds of the present application). A YLS-9A electrophysiological stimulator (Shanghai Xinruan Information Technology Co., Ltd.) was used in an induction model, and parameters were set as follows: configuration 8, stimulation voltage 160 V, wave number 90. When the electrical stimulation was performed, ears on both sides of the mice were firstly wiped with normal saline and then given the electrical stimulation for 1 lime with ear clip electrodes. Tonic straightening of hind limbs was used as a standard for epilepsy seizures. The animals with the tonic straightening of hind limbs were regarded as not being protected by the drugs, and the animals without the tonic straightening of hind limbs were regarded as being protected by the drugs. Response situations of the animals were observed and recorded, and obtained data were counted to calculate protection rates of the compounds.
Median effective doses (ED50) of the compounds to be tested for animal protection were calculated by a least square method (Graphpad Prism 5) with an administration dose-protection rate curve.

postherpetic neuralgia = conditions: cited from earlier work
[4] = test system: diabetic peripheral neuropathic pain; conditions: cited from earlier work
[5] = sc-PTZ 100 mg/kg, ICR mice, intraperitoneal 30 mg/kg (own compounds calculated by free base), 1 h observation

SMILES	Number of animals with clonic seizures/total number [1]	Protection rate (%) [1]	Clonic seizure incidence [2, 5]	Convulsive seizure incidence [2, 5]	Generalized clonic seizure incidence [2, 5]	Mortality [2, 5]	Tonic seizure incidence [2, 5]	improvement of the convulsive seizure incidence and the mortality ([2]; sc-PTZ mice, 30 mg/kg)	latent periods of generalized clonic seizures, tonic seizures and death ([2]; sc-PTZ mice, 30 mg/kg (calculated by free base), FIG. 6)	Number of animals with tonic straightening of hind limbs/total number of detected animals [3]	Protection rate (%) [3]	clinical effective rate (postherpetic neuralgia; daily dose up to 1,800 mg/day)	clinical effective rate (postherpetic neuralgia; daily dose up to 2,400 mg/day)	clinical effective rate (postherpetic neuralgia; daily dose up to 3,600 mg/day)	clinical effective rate ([4]; 60 mg/day)	clinical effective rate ([4]; 120 mg/day)
NCC1(CC(=O)O)CCCCC1 [Gabapentin]	2/4	50.0 * %	10/10	10/10	10/10	7/10	6/10	does not significantly improve	not effective	2/8	75.0%	32%	34%	43%	–	–
CNCC[C@H](Oc1cccc2ccccc12)c1cccs1 [duloxetine]	–	–	–	–	–	–	–	–	–	–	–	–	–	–	49%	52%
